Row | Compound | melting point [°C]
1 | COc1ccc(/C=C/C(=O)/C=C(O)\C=C\c2ccc(OC)c(OCc3ccccc3)c2)cc1OCc1ccccc1 [compound 3 of FIG. 35, (1E,4E,6E)-5-Hydroxy-1,7-bis(3-benzyloxy-4-methoxyphenyl)hepta-1,4,6-trien-3-one] | 153 to 155
2 | COc1cc(/C=C/C(=O)/C(F)=C(O)/C=C/c2ccc(O)c(OC)c2)ccc1O [compound 4 of FIG. 2, (1E,4E,6E)-4-Fluoro-5-hydroxy-1,7-bis(4-hydroxy-3-methoxyphenyl)hepta-1,4,6-trien-3-one] | 154 to 155
3 | O=C(/C=C/c1ccc(OCc2ccccc2)c(OCc2ccccc2)c1)/C=C(O)\C=C\c1ccc(OCc2ccccc2)c(OCc2ccccc2)c1 [compound 5 of FIG. 35, (1E,4E,6E)-5-Hydroxy-1,7-bis(3,4-dibenzyloxyphenyl)hepta-1,4,6-trien-3-one] | 150 to 153
4 | O=C(/C=C/c1csc2ccccc12)/C=C(O)\C=C\c1csc2ccccc12 [compound 7 of Example 5, (1E,4E,6E)-5-Hydroxy-1,7-bis(benzo[b]thiophen-3-yl)hepta-1,4,6-trien-3-one] | 159 to 160
5 | COc1ccc(/C=C/C(=O)C(F)(F)C(=O)/C=C/c2ccc(OC)c(OC)c2)cc1OC [compound 7 of FIG. 2, (1E,6E)-4,4-Difluoro-1,7-bis(3,4-dimethoxyphenyl)hepta-1,6-diene-3,5-dione] | 148 to 149
6 | COc1ccc(/C=C/C(=O)/C=C(O)\C=C\c2ccc(OC)c(OC)c2OC)c(OC)c1OC [compound 7 of FIG. 35, (1E,4E,6E)-5-Hydroxy-1,7-bis(2,3,4-trimethoxyphenyl)hepta-1,4,6-trien-3-one] | 104 to 106
7 | COc1ccc(/C=C/C(=O)/C(F)=C(O)/C=C/c2ccc(OC)c(OC)c2)cc1OC [compound 8 of FIG. 2, (1E,4E,6E)-4-Fluoro-5-hydroxy-1,7-bis(3,4-dimethoxyphenyl)hepta-1,4,6-trien-3-one] | 145 to 146
8 | O=C(/C=C/c1cc2ccccc2o1)/C=C(O)\C=C\c1cc2ccccc2o1 [compound 9 of Example 5, (1E,4E,6E)-5-Hydroxy-1,7-bis(benzo[b]furan-2-yl)hepta-1,4,6-trien-3-one] | 178 to 180
9 | O=C(/C=C/c1ccc(F)cc1)C(F)(F)C(=O)/C=C/c1ccc(F)cc1 [compound 12 of FIG. 2, (1E,6E)-4,4-Difluoro-1,7-bis(4-fluorophenyl)hepta-1,6-diene-3,5-dione] | 72 to 73
10 | O=C(/C=C/c1ccc(F)cc1)/C(F)=C(O)/C=C/c1ccc(F)cc1 [compound 13 of FIG. 2, (1E,4E,6E)-4-Fluoro-1,7-bis(4-fluorophenyl)-5-hydroxy-hepta-1,4,6-trien-3-one] | 152 to 153
11 | O=C(/C=C/c1cccc(OC(F)(F)F)c1)/C=C(O)\C=C\c1cccc(OC(F)(F)F)c1 [compound 15 of FIG. 35, (1E,4E,6E)-5-Hydroxy-1,7-bis(3-trifluoromethoxyphenyl)hepta-1,4,6-trien-3-one] | 68 to 70
12 | O=C(/C=C/c1ccc(OC(F)(F)F)cc1)/C=C(O)\C=C\c1ccc(OC(F)(F)F)cc1 [compound 17 of FIG. 35, (1E,4E,6E)-5-Hydroxy-1,7-bis(4-trifluoromethoxyphenyl)hepta-1,4,6-trien-3-one] | 108 to 111
13 | O=C(/C=C/c1ccc(C(F)(F)F)cc1)/C=C(O)\C=C\c1ccc(C(F)(F)F)cc1 [compound 20 of FIG. 2, (1E,4E,6E)-1,7-Bis(4-trifluoromethyl-phenyl)-5-hydroxy-hepta-1,4,6-trien-3-one] | 153 to 154
14 | O=C(/C=C/c1ccc(C(F)(F)F)cc1)C(F)(F)C(=O)/C=C/c1ccc(C(F)(F)F)cc1 [compound 21 of FIG. 2, (1E,6E)-4,4-Difluoro-1,7-bis(4-trifluoromethyl-phenyl)hepta-1,6-diene-3,5-dione] | 75 to 76
15 | O=C(/C=C/c1ccc(F)c(F)c1F)/C=C(O)\C=C\c1ccc(F)c(F)c1F [compound 21 of FIG. 35, (1E,4E,6E)-5-Hydroxy-1,7-bis(2,3,4-trifluorophenyl)hepta-1,4,6-trien-3-one] | 156 to 158
16 | O=C(/C=C/c1ccc(C(F)(F)F)cc1)/C(F)=C(O)/C=C/c1ccc(C(F)(F)F)cc1 [compound 22 of FIG. 2, (1E,4E,6E)-4-Fluoro-1,7-bis(4-trifluoromethyl-phenyl)-5-hydroxy-hepta-1,4,6-trien-3-one] | 144 to 146
17 | FC(F)(F)Sc1ccc(C=Cc2cc(C=Cc3ccc(SC(F)(F)F)cc3)n(-c3ccccc3)n2)cc1 [compound 28 of FIG. 43, 3,5-bis-(4-Trifluoromethylthiostyryl)-1-phenylpyrazole] | 119 to 121
18 | FC(F)(F)Sc1ccc(C=Cc2cc(C=Cc3ccc(SC(F)(F)F)cc3)n(-c3cccc(C(F)(F)F)c3)n2)cc1 [compound 29 of FIG. 43, 3,5-bis-(4-trifluoromethylthiostyryl)-1-(3-trifluoromethylphenyl)pyrazole] | 121 to 122
19 | FC(F)(F)Sc1ccc(C=Cc2cc(C=Cc3ccc(SC(F)(F)F)cc3)on2)cc1 [compound 30 of FIG. 43, 3,5-bis-(4-Trifluoromethylthiostyryl)-isoxazole] | 165 to 167
20 | Fc1ccc(C=Cc2cc(C=Cc3ccc(F)cc3)n(-c3ccccc3)n2)cc1 [compound 31 of FIG. 43, 3,5-bis-(4-Fluorostyryl)-1-phenylpyrazole] | 109 to 111
21 | Fc1ccc(C=Cc2cc(C=Cc3ccc(F)cc3)n(-c3ccc(OC(F)(F)F)cc3)n2)cc1 [compound 32 of FIG. 43, 3,5-bis-(4-Fluorostyryl)-1-(4-trifluoromethoxyphenyl)pyrazole] | 155 to 156
22 | Fc1ccc(C=Cc2cc(C=Cc3ccc(F)cc3)n(-c3cccc(C(F)(F)F)c3)n2)cc1 [compound 33 of FIG. 43, 3,5-bis-(4-Fluorostyryl)-1-(3-trifluoromethylphenyl)pyrazole] | 98 to 100
23 | Fc1ccc(C=Cc2cc(C=Cc3ccc(F)cc3)n(-c3ccc(F)c(F)c3)n2)cc1 [compound 34 of FIG. 43, 3,5-bis-(4-Fluorostyryl)-1-(3,4-difluorophenyl)pyrazole] | 169 to 170
24 | N#Cc1ccc(-n2nc(C=Cc3ccc(F)cc3)cc2C=Cc2ccc(F)cc2)cc1 [compound 35 of FIG. 43, 3,5-bis-(4-Fluorostyryl)-1-(4-cyanophenyl)pyrazole] | 209 to 211
25 | FC(F)(F)c1ccc(C=Cc2cc(C=Cc3ccc(C(F)(F)F)cc3)n(-c3ccccc3)n2)cc1 [compound 37 of FIG. 43, 3,5-bis-(4-Trifluoromethylstyryl)-1-phenylpyrazole] | 137 to 139
26 | COc1ccc(C=Cc2cc(C=Cc3ccc(OC)c(OC)c3OC)on2)c(OC)c1OC [compound 40 of FIG. 43, 3,5-bis-(2,3,4-Trimethoxystyryl)-isoxazole] | 136 to 137

Continued, values first:

Row | melting point [°C] | Compound
27 | 154 to 156 | COc1cc(F)c(/C=C/C(=O)/C=C(O)\C=C\c2cc(OC)c(OC)cc2F)cc1OC [compound 15 of FIG. 2, (1E,4E,6E)-5-Hydroxy-1,7-bis(3,4-dimethoxy-6-fluorophenyl)hepta-1,4,6-trien-3-one]
28 | 162 to 163 | COc1cc(F)c(/C=C/C(=O)C(F)(F)C(=O)/C=C/c2cc(OC)c(OC)cc2F)cc1OC [compound 16 of FIG. 2, (1E,6E)-4,4-Difluoro-1,7-bis(3,4-dimethoxy-6-fluorophenyl)hepta-1,6-diene-3,5-dione]
29 | 148 to 150 | COc1cc(F)c(/C=C/C(=O)/C(F)=C(O)/C=C/c2cc(OC)c(OC)cc2F)cc1OC [compound 17 of FIG. 2, (1E,4E,6E)-4-Fluoro-5-hydroxy-1,7-bis(3,4-dimethoxy-6-fluorophenyl)hepta-1,4,6-trien-3-one]
30 | > 260 | COc1cc(F)c(/C=C/C(=O)C(F)C(=O)/C=C/c2cc(OC)c(OC)cc2F)cc1OC [compound 18 of FIG. 2, (1E,6E)-4-Fluoro-1,7-bis(3,4-dimethoxy-6-fluorophenyl)hepta-1,6-diene-3,5-dione]
31 | 142 to 144 | COc1cc(F)c(C=Cc2cc(C=Cc3cc(OC)c(OC)cc3F)n(-c3ccccc3)n2)cc1OC [compound 22 of FIG. 43, 3,5-bis-(6-Fluoro-3,4-dimethoxystyryl)-1-phenylpyrazole]
32 | 80 to 83 | COc1cc(F)c(C=Cc2cc(C=Cc3cc(OC)c(OC)cc3F)n(-c3ccc(OC(F)(F)F)cc3)n2)cc1OC [compound 23 of FIG. 43, 3,5-bis-(6-Fluoro-3,4-dimethoxystyryl)-1-(4-trifluoromethoxyphenyl)pyrazole]
33 | 130 to 134 | COc1cc(F)c(C=Cc2cc(C=Cc3cc(OC)c(OC)cc3F)n(-c3cccc(C(F)(F)F)c3)n2)cc1OC [compound 24 of FIG. 43, 3,5-bis-(6-Fluoro-3,4-dimethoxystyryl)-1-(3-trifluoromethylphenyl)pyrazole]
34 | 115 to 117 | COc1cc(F)c(C=Cc2cc(C=Cc3cc(OC)c(OC)cc3F)n(-c3cc(F)cc(F)c3)n2)cc1OC [compound 25 of FIG. 43, 3,5-bis-(6-Fluoro-3,4-dimethoxystyryl)-1-(3,5-difluorophenyl) pyrazole]
35 | 91 to 93 | COc1cc(F)c(C=Cc2cc(C=Cc3cc(OC)c(OC)cc3F)n(-c3ccc(C#N)cc3)n2)cc1OC [compound 26 of FIG. 43, 3,5-bis-(6-Fluoro-3,4-dimethoxystyryl)-1-(4-cyanophenyl)pyrazole]
36 | 144 to 146 | COc1cc(C=Cc2cc(C=Cc3cc(OC)c(OC)c(OC)c3)n(-c3ccccc3)n2)cc(OC)c1OC [compound 41 of FIG. 43, 3,5-bis-(3,4,5-Trimethoxy-styryl)-1-phenylpyrazole]
37 | 140 to 142 | COc1cc(C=Cc2cc(C=Cc3cc(OC)c(OC)c(OC)c3)n(-c3ccc(OC(F)(F)F)cc3)n2)cc(OC)c1OC [compound 42 of FIG. 43, 3,5-bis-(3,4,5-Trimethoxy-styryl)-1-(4-trifluoromethoxyphenyl) pyrazole]

From patent US11117907B2, “Curcuminoid-inspired synthetic compounds as anti-tumor agents” (University of North Florida Board of Trustees, priority 2017, dated 2021)
